The record followed here is patent US20060040327A1, “Methods of screening proteins” (priority 2004, published 2006).

Data set [1] in a line: FRET fluorescent response of E. coli expressing DsRed2-GGBP-acGFP to glucose. Format: cell-based. Particulars: 22 mM glucose; excitation at 475 nm; after accounting for volume displacement. The protocol:
The expression of DsRed2-GGBP-acGFP in E. coli was optimized by first inducing with IPTG and then monitoring the fluorescence produced by the DsRed2 and acGFP proteins. Initially, the protein is expressed for 2-6 hours at 37 C and then transferred to a 25 C shaker for up to 6 days. A 1 ml sample of fermentation broth is removed every 24 hrs during the 25 C expression and examined for fluorescence. […] After accounting for volume displacement, there was a 1-4% increase in DsRed2 emission at 22 mM glucose after excitation at 475 nm due to FRET.

Data set [2] is described as follows: Stability of binding activity of labeled protein on storage, fluorescent response to glucose. Format: physicochemical. The protocol: (§1) Combining the preceding mutations provided E149C,A213R,L238S, a protein with glucose binding affinity that is within the physiological range. […] As an illustrative example, the stability of this protein's binding activity was determined by storing solutions of the labeled protein at 25° C. and at 37° C. in a dark environment, and testing aliquots periodically for fluorescent response to glucose. The fluorescence increase for E149C,A213R,L238S upon binding glucose retained 92% of the original fluorescence increase after 3 months at 25° C., and 88% after 3 months at 37° C. Relative stability of the protein's tertiary structure was determined using CD (circular dichroism) spectroscopy of the protein in solution. Spectra were collected in 10 mM PBS, pH 7.4. Each spectrum was the average of 3 accumulations. Thermal denaturation was monitored at 220 nm using a temperature slope of 15° C. per hour over a temperature range of 15-75° C. The Tm (temperature where 50% of the protein was denatured) was 47° C. without glucose and 50° C. in the presence of glucose (see FIG. 2).

Data set [3] is described as follows: Thermal denaturation by CD spectroscopy at 220 nm. It is filed as physicochemical. The settings on record: 10 mM PBS, pH 7.4, CD 220 nm.
Source text: FIG. 2 depicts a plot of the CD spectra ellipticity at 220 nm wavelength of a fluorescently labeled periplasmic binding protein versus temperature. The plot for the protein without ligand is the solid line and the dotted line is the same protein in the presence of its ligand (glucose).
as §1

A short description of data set [4]: Fluorescent response and glucose binding curve of IANBD-labeled GGBP mutants. The settings on record: IANBD-labeled protein; for Kd: read-out: glucose affinity; for increase in fluorescence on binding glucose: fluorescent response to 100 mM glucose. The protocol:
GGBP protein from the above examples, expressed from E. coli strain Sg13009 following standard protocols (Qiagen) may be further purified. For example, after induction, bacteria were lysed and purified by IMAC using Talon cobalt^2+ resin (Clontech). The purified protein solution was filtered through 100 kDa and 10 kDa cutoff filters (Millipore). […] The yield from the purification was 10 mg/l and the activity of the protein is stable for at least six months. The selected mutants were expressed, purified, and IANBD-labeled to determine their ability to produce a fluorescent response to 100 mM glucose. Mutant E149C,A213R and E149C,N256R produced a 6- and 2-fold increase in fluorescence on binding glucose, respectively. […] Mutant E149C,L238S was identified through an analogous procedure.
as §1

Data set [5] can be described thus: Fluorescence assay of NBD-labeled MBP mutants, maltoside. It is filed as binding. Particulars: ligand maltoside; ratio of fluorescence intensity with / without ligand. On the procedure: (§2) For the mutants selected by FACS, a fluorescence assay was used to determine their maltose affinity. The mutants were labeled by fluorophore coupling of N,N′-dimethyl-N-(iodoacetyl)-N′-(7-nitrobenz-2-oxa-1,3-diazol-4-yl)ethylenediamine (IANBD amide, Molecular Probes) to a cysteine site created by mutagenesis at position 95 (Gilardi et al. (1997) Protein Eng. 10(5):479-86). Briefly, purified protein (1-2 mg/ml) was treated with dithiothreitol for 30 min and then a 10-fold molar excess of freshly prepared solution of IANBD was added. The protein and dye were gently mixed at RT for 4 hrs before the unreacted dye was removed by Nap-5 (Amersham) size-exclusion column chromatography. The efficiency of the coupling was determined by absorbance.
(§3) QF is defined as the ratio of fluorescence intensity in the presence of ligand, divided by the ratio of fluorescence intensity in the absence of ligand.

A short description of data set [6]: Fluorescence assay of NBD-labeled MBP mutants, maltotetraitol. It is filed as binding. The settings on record: ligand maltotetraitol; for QF: ratio of fluorescence intensity with / without ligand; for Kd: read-out: Affinity. On the procedure:
as §2, §3

Data set [7] can be described thus: Fluorescence assay of NBD-labeled MBP mutants, maltotetraose. Format: binding. Particulars: ligand maltotetraose; for QF: ratio of fluorescence intensity with / without ligand; for Kd: read-out: Affinity. The protocol:
as §2, §3

A short description of data set [8]: Fluorescence assay of NBD-labeled MBP mutants, maltose. Format: binding. Particulars: ligand Maltose; for QF: ratio of fluorescence intensity with / without ligand; for Kd: read-out: Affinity. The protocol:
as §2, §3

Where only a bound is given, the exact number is not on record here.

DsRed2-GGBP-acGFP: in data set [1], the “increase in DsRed2 emission due to FRET” value is given as 1-4%.

Turning to “E149C,A213R,L238S: GGBP mutant combining the preceding mutations”, the “fluorescence increase upon binding glucose retained, of the original fluorescence increase” value in data set [2] (labeled protein solution stored 3 months at 25° C. in the dark) was found to be 92%; in data set [2] (labeled protein solution stored 3 months at 37° C. in the dark) it was 88%. Also, the “Tm (temperature where 50% of the protein was denatured)” value in data set [3] (in the presence of glucose) was 50 °C; in data set [3] (without glucose), 47 °C. Further, the Kd in data set [4] (binding curve) was 12000 µM. Further, in data set [4], the “increase in fluorescence on binding glucose” value (shortened to “increase in fluorescence”) was more than 6 fold.

On to “E149C,L238S: GGBP mutant binding protein identified through an analogous procedure”, for which the Kd in data set [4] (binding curve) came out at 80 µM. The “increase in fluorescence” value in data set [4] stood at 6 fold.

As for “E149C,N256R: GGBP mutant selected by screening, eliminated from further testing”, the glucose affinity result in data set [4] (binding curve) is on record as “did not reach saturation at 100 mM glucose”. For the same substance, the “increase in fluorescence” value in data set [4] came out at 2 fold.

In the case of MBP(D14L,K15R,D95C)-NBD [SC-1], the QF in data set [5] was found to be 5.5; in data set [6], 2.8; in data set [7], 2.1; in data set [8], 3.4. The Kd in data set [6] was determined as 3.7 µM; in data set [7], 3.6 µM; in data set [8], 15 µM.

With “MBP(D95C)-NBD [CONTROL, reference compound]”, the QF came out at 5.5 in data set [5], 1.2 in data set [6], 5.2 in data set [7] and 5.3 in data set [8]. The figures for the Kd in data set [6], in data set [7] and in data set [8] were 4.5 µM, 0.2 µM and 1 µM, respectively.

As for “E149C,A213R: GGBP mutant binding protein identified by the periplasmic screening assay”, in data set [4] (binding curve), the Kd was found to be 1000 µM. In addition, in data set [4], the “increase in fluorescence” value was 6 fold.

For MBP(D14V, K15V, D95C)-NBD [SC-2], the figures for the Kd in data set [6], in data set [7] and in data set [8] were 11 µM, 40 µM and 220 µM, respectively.
